How the values were obtained:
WDR5 = WDR5 (Homo sapiens, UniProt P61964); test: WDR5 HTRF binding assay; details: read-out: (a) WDR5 HTRF Pep Val v.1[Inhibitor/IC50]Qualified AC50
In short: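 6 nM WDR5 and 20 nM biotin-MLL1 WIN peptide (3762-3773) were incubated with compound (12-point, 3-fold dilutions) in pH 7.5 Hepes/NaCl/DTT buffer for 20 min at rt. Streptavidin-APC plus anti-His-Eu were then added for 1 hr, with HTRF read at 665/615. IC50 was fit from control-normalized activity; the counter assay used 15 nM biotin-PEG-His peptide.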

[1] = target: wild type MLL1 four-member complex (MLL1-4C) (Homo sapiens, UniProt P61964); test: MLL1 LC-MS assay (SAH production); assay type: biochemical; details: read-out: (b) MLL LCMS Peptide Val.v.1 Qualified AC50
In short: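 MLL1-4C (30 nM final) was preincubated 20 min with compound (3-fold dilutions, 8 or 12 points) and SAM in Tris-HCl pH 8.0 buffer. H3K4me0 peptide (histone H3[1-21]-biotin) was then added, giving final 2.5 μM SAM and 10 μM substrate, and reactions ran 120 min at rt. After TFA/d4-SAH quench, SAH was quantified by LC-MS/MS and IC50 fitted from control-normalised activity.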

MV4-11 cells = test: MV4-11 6-day cell growth CTG (CellTiter-Glo) assay; assay type: cell-based; details: Homo sapiens, MV4-11, 144 h, 6 days, read-out: (c) MLL/WDR5 cell proliferation assay//MLL/WDR5 proliferation MV4:11 Qualified AC50
In short: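 Exponentially growing MV4-11 AML cells (RPMI 1640, 10% FBS) seeded at 300 cells/well with 12-point 1:3 compound dilutions, top final concentration 50 μM. Viability read by CellTiter-Glo luminescence after 6 days at 37° C; % inhibition vs DMSO-only wells fitted to dose-response for IC50.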

SMILES | IC50 (WDR5) | AC50 [1] | AC50 (MV4-11 cells)
CCOc1cc([C@H](C)N2CCc3c(cc(CCN4C[C@@H](O)[C@H]4C)cc3-c3cc(C(F)F)cnc3C)C2=O)ncc1C#N [Example 218] | < 0.01 µM | 0.01 to 1 µM | 0.01 to 1 µM
CCOc1cc([C@H](C)N2CCc3c(cc(CCN4C[C@@H](O)[C@H]4C)cc3-c3ccc(N)nc3C)C2=O)ncc1C#N [Example 219] | < 0.01 µM | 0.01 to 1 µM | 0.01 to 1 µM
CCOc1cc([C@H](C)N2CCc3c(cc(CCN4C[C@@H](O)[C@H]4C)cc3-c3cc(C)cnc3C)C2=O)ncc1C#N [Example 220] | < 0.01 µM | 0.01 to 1 µM | 0.01 to 1 µM
CCOc1cc([C@H](C)N2CCc3c(cc(CCN4C[C@@H](O)[C@H]4C)cc3-c3cc(C)ncc3C)C2=O)ncc1C#N [Example 221] | < 0.01 µM | 0.01 to 1 µM | 0.01 to 1 µM
CCOc1cc([C@@H](C)N2CCc3c(cc(CCN4C[C@@H](O)[C@H]4C)cc3-c3cc(C)ncc3C)C2=O)ncc1C#N [Example 223] | 0.01 to 1 µM | 0.01 to 1 µM | 0.01 to 1 µM
CCOc1cc(CN2CCc3c(cc(CCN4C[C@@H](O)[C@H]4C)cc3-c3cn(C)c(=O)cc3C(F)(F)F)C2=O)ncc1C#N [Example 224] | 0.01 to 1 µM | 0.01 to 1 µM | 0.01 to 1 µM
CCOc1cc([C@H](C)N2CCc3c(cc(CCN4CC[C@@H](O)[C@H]4C)cc3-c3ccc(F)nc3C)C2=O)ncc1C#N [Example 225, 4-ethoxy-6-((S)-1-(5-(6-fluoro-2-methylpyridin-3-yl)-7-(2-((2R, 3R)-3-hydroxy-2-methylpyrrolidin-1-yl)ethyl)-1-oxo-3,4-dihydroisoquinolin-2(1H)-yl)ethyl)nicotinonitrile] | < 0.01 µM | 0.01 to 1 µM | 0.01 to 1 µM
CCOc1cc([C@H](C)N2CCc3c(cc(CCN4C[C@@H](O)C[C@H]4C)cc3-c3ccc(F)nc3C)C2=O)ncc1C#N [Example 226] | < 0.01 µM | 0.01 to 1 µM | 0.01 to 1 µM
CCOc1cc([C@H](C)N2CCc3c(cc(CCN4C[C@@H](O)C[C@@H]4C)cc3-c3ccc(F)nc3C)C2=O)ncc1C#N [Example 227] | 0.01 to 1 µM | 0.01 to 1 µM | 1 to 25 µM
CCOc1cc([C@H](C)N2CCc3c(cc(CCN(C)CCO)cc3-c3cc(F)cnc3C(F)(F)F)C2=O)ncc1C#N [Example 228, (S)-4-ethoxy-6-(1-(5-(5-fluoro-2-(trifluoromethyl)pyridin-3-yl)-7-(2-((2-hydroxyethyl)(methyl)amino)ethyl)-1-oxo-3,4-dihydroisoquinolin-2(1H)-yl)ethyl)nicotinonitrile] | < 0.01 µM | 0.01 to 1 µM | 0.01 to 1 µM
CCOc1cc([C@H](C)N2CCc3c(cc(CCN(C)CCOC)cc3-c3cc(C)ncc3C)C2=O)ncc1C#N [Example 232] | < 0.01 µM | 0.01 to 1 µM | 0.01 to 1 µM
CCOc1cc([C@H](C)N2CCc3c(cc(CCN(C)CCOC)cc3-c3ccc(F)nc3C)C2=O)ncc1C#N [Example 234] | < 0.01 µM | 0.01 to 1 µM | 0.01 to 1 µM
CCOc1cc([C@H](C)N2CCc3c(cc(CCN4CC[C@H]4C)cc3-c3ccc(F)nc3C)C2=O)ncc1C#N [Example 235] | < 0.01 µM | 0.01 to 1 µM | 0.01 to 1 µM
CCOc1cc(C(C)N2CCc3c(cc(CCN(C)CCF)cc3-c3cn(C)c(=O)cc3Cl)C2=O)ncc1C#N (stereo not drawn) [Example 237] | < 0.01 µM | 0.01 to 1 µM | 0.01 to 1 µM
CCOc1cc([C@H](C)N2CCc3c(cc(CCN(C)CC(C)O)cc3-c3cn(C)c(=O)cc3Cl)C2=O)ncc1C#N (stereo partly drawn) [Example 239] | < 0.01 µM | 0.01 to 1 µM | 0.01 to 1 µM
CCOc1cc(C(C)N2CCc3c(cc(CCN(C)CCF)cc3-c3cn(C)nc3C)C2=O)ncc1C#N (stereo not drawn) [Example 241] | 0.01 to 1 µM | 0.01 to 1 µM | 0.01 to 1 µM
CCOc1cc([C@H](C)N2CCc3c(cc(CCN(C)CC(C)O)cc3-c3ccc(F)nc3C)C2=O)ncc1C#N (stereo partly drawn) [Example 242] | 0.01 to 1 µM | 0.01 to 1 µM | 0.01 to 1 µM
CCOc1cc(CN2CCc3c(cc(CCN4CC[C@H]4C)cc3-c3ccc(F)nc3C)C2=O)ncc1C#N [Example 245] | 0.01 to 1 µM | 0.01 to 1 µM | 0.01 to 1 µM
CCOc1cc([C@H](C)N2CCc3c(cc(CCN(C)CCF)cc3-c3ccc(F)nc3C)C2=O)ncc1C#N [Example 247] | 0.01 to 1 µM | 0.01 to 1 µM | 0.01 to 1 µM
CCOc1cc(C(C)N2CCc3c(cc(CCN(C)CCF)cc3-c3cc(C)ncc3C)C2=O)ncc1C#N (stereo not drawn) [Example 248] | 0.01 to 1 µM | 0.01 to 1 µM | 0.01 to 1 µM
CCOc1cc([C@H](C)N2CCc3c(cc(CCN4CC(F)C4)cc3-c3cn(C)c(=O)cc3C(F)(F)F)C2=O)ncc1C#N [Example 249] | 0.01 to 1 µM | 0.01 to 1 µM | 0.01 to 1 µM
CCOc1cc([C@H](C)N2CCc3c(cc(CCN(C)CCO)cc3-c3cc(C)ncc3C)C2=O)ncc1C#N [Example 250] | 0.01 to 1 µM | 0.01 to 1 µM | 0.01 to 1 µM
CCOc1cc([C@H](C)N2CCc3c(cc(CCN(C)CCF)cc3-c3cn(C)c(=O)cc3Cl)C2=O)ncc1C#N [Example 251] | 0.01 to 1 µM | 0.01 to 1 µM | 0.01 to 1 µM
CCOc1cc([C@H](C)N2CCc3c(cc(CCN(C)C4COC4)cc3-c3ccc(F)nc3C)C2=O)ncc1C#N [Example 253] | 0.01 to 1 µM | 0.01 to 1 µM | 0.01 to 1 µM
CCOc1cc([C@H](C)N2CCc3c(cc(CCN(C)CCF)cc3-c3cc(C)ncc3C)C2=O)ncc1C#N [Example 254] | 0.01 to 1 µM | 0.01 to 1 µM | 0.01 to 1 µM
COc1cc(CN2CCc3c(cc(CCN(C)C)cc3-c3cn(C)nc3C(F)(F)F)C2=O)ccc1F [Example 255] | 0.01 to 1 µM | 0.01 to 1 µM | 1 to 25 µM
CCOc1cc([C@H](C)N2CCc3c(cc(CCN(C)CC)cc3C(O)C(C)C)C2=O)ncc1C#N (stereo partly drawn) [Example 256, 4-ethoxy-6-((1S)-1-(7-(2-(ethyl(methyl)amino)ethyl)-5-(1-hydroxy-2-methylpropyl)-1-oxo-3,4-dihydroisoquinolin-2(1H)-yl)ethyl)nicotinonitrile] | 0.01 to 1 µM | 0.01 to 1 µM | 0.01 to 1 µM

Continued, in another order:

IC50 (WDR5) | AC50 [1] | SMILES | AC50 (MV4-11 cells)
< 0.01 µM | 0.01 to 1 µM | CCOc1cc([C@H](C)N2CCc3c(cc(CCN4C[C@@H](O)[C@H]4C)cc3-c3cn(C)c(=O)cc3C)C2=O)ncc1C#N [Example 216] | 0.01 to 1 µM
< 0.01 µM | 0.01 to 1 µM | CCOc1cc([C@H](C)N2CCc3c(cc(CCN4C[C@@H](O)[C@H]4C)cc3-c3ccc(F)nc3C)C2=O)ncc1C#N [Example 217] | 0.01 to 1 µM
0.01 to 1 µM | 0.01 to 1 µM | CCOc1cc(CN2CCc3c(cc(CCN4C[C@@H](O)[C@H]4C)cc3-c3ccc(F)nc3C)C2=O)ncc1C#N [Example 222] | 0.01 to 1 µM
< 0.01 µM | 0.01 to 1 µM | CCOc1cc([C@H](C)N2CCc3c(cc(CCN(C)C4CC4)cc3-c3ccc(F)nc3C)C2=O)ncc1C#N [Example 229] | 0.01 to 1 µM
< 0.01 µM | 0.01 to 1 µM | CCOc1cc([C@H](C)N2CCc3c(cc(CCN(C)CCO)cc3-c3cc(N)cnc3C(F)(F)F)C2=O)ncc1C#N [Example 230] | 0.01 to 1 µM
< 0.01 µM | 0.01 to 1 µM | CCOc1cc(C(C)N2CCc3c(cc(CCN(C)C4COC4)cc3-c3ccc(F)nc3C)C2=O)ncc1C#N (stereo not drawn) [Example 231] | 0.01 to 1 µM
< 0.01 µM | 0.01 to 1 µM | CCOc1cc(C(C)N2CCc3c(cc(CCN(C)CCOC)cc3-c3cn(C)c(=O)cc3Cl)C2=O)ncc1C#N (stereo not drawn) [Example 233] | 0.01 to 1 µM
< 0.01 µM | 0.01 to 1 µM | CCOc1cc(C(C)N2CCc3c(cc(CCN(C)CCF)cc3-c3ccc(F)nc3C)C2=O)ncc1C#N (stereo not drawn) [Example 236] | 0.01 to 1 µM
< 0.01 µM | 0.01 to 1 µM | CCOc1cc([C@H](C)N2CCc3c(cc(CCN(C)CCO)cc3-c3cn(C)c(=O)cc3Cl)C2=O)ncc1C#N [Example 238] | 0.01 to 1 µM
< 0.01 µM | 0.01 to 1 µM | CCOc1cc([C@H](C)N2CCc3c(cc(CCN(C)CCOC)cc3-c3cn(C)c(=O)cc3Cl)C2=O)ncc1C#N [Example 240] | 0.01 to 1 µM
0.01 to 1 µM | 0.01 to 1 µM | CCOc1cc([C@H](C)N2CCc3c(cc(CCN4CC[C@H]4CO)cc3-c3ccc(F)nc3C)C2=O)ncc1C#N [Example 243] | 0.01 to 1 µM
0.01 to 1 µM | 0.01 to 1 µM | CCOc1cc([C@H](C)N2CCc3c(cc(CCN4C[C@@H](OC)[C@H]4C)cc3-c3ccc(F)nc3C)C2=O)ncc1C#N [Example 244] | 0.01 to 1 µM
0.01 to 1 µM | 0.01 to 1 µM | CCOc1cc([C@H](C)N2CCc3c(cc(CCN(C)CC(C)O)cc3-c3cc(C)cnc3C)C2=O)ncc1C#N (stereo partly drawn) [Example 246] | 0.01 to 1 µM
0.01 to 1 µM | 0.01 to 1 µM | CCOc1cc([C@H](C)N2CCc3c(cc(CCN(C)CCO)cc3-c3ccc(F)nc3C)C2=O)ncc1C#N [Example 252] | 0.01 to 1 µM
